Data as given in patent publication US11865126B2, “Method for treating anxiety disorders, headache disorders, and eating disorders with psilocybin” (priority 2019, dated 2024).

Legend:
healthy subjects [1] = assay: Scale of Social Responsibility (SSR); format: in vivo, human
Description: In some embodiments, the Scale of Social Responsibility (SSR) is utilized to evaluate the safety and/or efficacy of psilocybin. The SSR measures perceptions regarding the importance of ethics and social responsibility.
The following list of outcome measures are non-exhaustive. • a. The short-term change from Baseline (Day −1 [Visit 2]) to Day 7 (Visit 5) in cognitive measures of attention, spatial and working memory and executive function was measured by a composite score of the CANTAB Panel (Spatial Working Memory [SWM], Rapid Visual Information Processing [RVP], Paired Associates Learning [PAL]). • b. The short-term change from Baseline (Day −1 [Visit 2]) to Day 7 (Visit 5) in Social Cognition Panel scales (Pictorial Empathy Test [PET], Reading the Mind in the Eyes Test [RMET], Toronto Empathy Questionnaire [TEQ], Social Value Orientation [SVO], Scale of Social Responsibility [SSR]). • c. The change from Baseline (Day −1 [Visit 2]) to Day 28 (Visit 6) in cognitive measures of attention, spatial and working memory and executive function as measured by a composite score of the CANTAB Panel (SWM, RVP, PAL). • d. The long-term change from Baseline (Day −1 [Visit 2]) to Day 84 (Visit 7) in Social Cognition Panel scales (PET, RMET, TEQ, SVO, SSR). • e. Dose-related differences between cognitive effects of psilocybin at Baseline (Day −1 [Visit 2]), Day 7 (Visit 5) and Day 28 (Visit 6), as measured by a composite score of the CANTAB Panel (SWM, RVP, PAL). • f. Dose-related differences between psychological effects of psilocybin at Baseline (Day −1 [Visit 2]), Day 7 (Visit 5) and Day 84 (Visit 7), as measured by Social Cognition Panel scales (PET, RMET, TEQ, SVO, SSR). • g. Differences in cognitive effects of psilocybin between psilocybin-naïve and experienced subjects at Baseline (Day −1 [Visit 2]), Day 7 (Visit 5) and Day 28 (Visit 6), as measured by a composite score of the CANTAB Panel (SWM, RVP, PAL). • h. Differences in Positive and Negative Affect Schedule (PANAS) after study drug administration on Day 0 (Visit 3). • i. Differences between psilocybin and placebo in the Emotion Recognition Test (ERT), Intra-Extra Dimensional Set Shift (IED), One Touch Stockings (OTS), Verbal Fluency and Digit Span Forward at Day 7 (Visit 5). • j. A composite score of the CANTAB Panel, including the following tests: • i. Spatial Working Memory (SWM) (performed at Visit 2, Visit 5, and Visit 6). • ii. Rapid Visual Information Processing (RVP) (performed at Visit 2, Visit 5, and Visit 6). • iii. Paired Associates Learning (PAL) (performed at Visit 2, Visit 5, and Visit 6). • k. Cognitive Flexibility Panel • i. Emotion Recognition Task (ERT) (performed at Visit 5). • ii. Intra-Extra Dimensional Set Shift (IED) (performed at Visit 5). • iii. One Touch Stockings (OTS) (performed at Visit 5). • iv. Verbal Fluency (performed at Visit 5). • v. Digit Span Forward (performed at Visit 5). • l. Five Dimension Altered States of Consciousness questionnaire (5D-ASC) (performed at Visit 3). • m. PANAS (performed at Visit 2 and Visit 3). • n. NEO-Five Factor Inventory (NEO-FFI) (performed at Visit 2, Visit 5, and Visit 7). • o. Symptom Checklist-90 item (SCL-90) (performed at Visit 2, Visit 5, and Visit 7). • p. Life Changes Inventory (LCI): The LCI measures changes in attitudes and values after near-death experiences often used to evaluate personal transformation following spiritually oriented experiences and practices. (performed at Visit 5 and Visit 7). • q. Social Cognition Panel scales • i. Pictorial Empathy Test (PET) (performed at Visit 2, Visit 5, and Visit 7). • ii. Reading the Mind in the Eyes Test (RMET) (performed at Visit 2, Visit 5, and Visit 7). • iii. Social Value Orientation (SVO) (performed at Visit 2, Visit 5, and Visit 7). • iv. Toronto Empathy Questionnaire (TEQ) (performed at Visit 2, Visit 5, and Visit 7). • v. Scale of Social Responsibility (SSR) (performed at Visit 2, Visit 5, and Visit 7). • r. Sheehan Suicidality Tracking Scale (SSTS) • s. […]

[2] = Binge eating model: body weight; conditions: 1, 3 and 10 mg/kg IP
healthy subjects [3] = assay: NEO-Five Factor Inventory (NEO-FFI); format: in vivo, human
Description: In some embodiments, the NEO-Five Factor Inventory (NEO-FFI) test is used to evaluate the safety and/or efficacy of psilocybin. The NEO-FFI evaluates 5 broad domains of personality—Neuroticism, Extroversion, Openness, Agreeableness and Conscientiousness.
The Neuroticism Extraversion Openness-Five Factor Inventory (NEO-FFI) and Symptom Checklist-90 Item (SCL-90) were administered. Details of the MMRM applied to the change from baseline scores for the NEO-FFI and SCL-90 are provided below in Table 28.

CN(C)CCc1c[nH]c2cccc(OP(=O)(O)O)c12 [psilocybin]
SSR compliance social rules change from baseline, LS mean difference Psilocybin 10 mg - Placebo (healthy subjects [1]; Day 7, MMRM): 0.0 | SSR compliance social rules change from baseline, LS mean difference Psilocybin 25 mg - Placebo (healthy subjects [1]; Day 7, MMRM): 0.1 | SSR compliance social rules change from baseline, LS mean difference Psilocybin 25 mg-10 mg (healthy subjects [1]; Day 7, MMRM): 0.1 | SSR fulfilling expectations change from baseline, LS mean difference Psilocybin 10 mg - Placebo (healthy subjects [1]; Day 7, MMRM): 0.1 | SSR fulfilling expectations change from baseline, LS mean difference Psilocybin 25 mg - Placebo (healthy subjects [1]; Day 7, MMRM): 0.2 | SSR fulfilling expectations change from baseline, LS mean difference Psilocybin 25 mg-10 mg (healthy subjects [1]; Day 7, MMRM): 0.1 | SSR global change from baseline, LS mean difference Psilocybin 10 mg - Placebo (healthy subjects [1]; Day 7, MMRM): 1.2 | SSR global change from baseline, LS mean difference Psilocybin 25 mg - Placebo (healthy subjects [1]; Day 7, MMRM): 2.8 | SSR global change from baseline, LS mean difference Psilocybin 25 mg-10 mg (healthy subjects [1]; Day 7, MMRM): 1.6 | SSR compliance social rules change from baseline, LS mean difference Psilocybin 10 mg - Placebo (healthy subjects [1]; Day 84, MMRM): −0.0 | SSR compliance social rules change from baseline, LS mean difference Psilocybin 25 mg - Placebo (healthy subjects [1]; Day 84, MMRM): 0.1 | SSR compliance social rules change from baseline, LS mean difference Psilocybin 25 mg-10 mg (healthy subjects [1]; Day 84, MMRM): 0.1 | SSR fulfilling expectations change from baseline, LS mean difference Psilocybin 10 mg - Placebo (healthy subjects [1]; Day 84, MMRM): −0.1 | SSR fulfilling expectations change from baseline, LS mean difference Psilocybin 25 mg - Placebo (healthy subjects [1]; Day 84, MMRM): 0.0 | SSR fulfilling expectations change from baseline, LS mean difference Psilocybin 25 mg-10 mg (healthy subjects [1]; Day 84, MMRM): 0.2 | SSR global change from baseline, LS mean difference Psilocybin 10 mg - Placebo (healthy subjects [1]; Day 84, MMRM): 0.3 | SSR global change from baseline, LS mean difference Psilocybin 25 mg - Placebo (healthy subjects [1]; Day 84, MMRM): 2.2 | SSR global change from baseline, LS mean difference Psilocybin 25 mg-10 mg (healthy subjects [1]; Day 84, MMRM): 1.8 | SSR fulfilling expectations change from baseline, LS mean (healthy subjects [1]; Psilocybin 10 mg, Day 7, MMRM): −0.1 | SSR fulfilling expectations change from baseline, LS mean (healthy subjects [1]; Psilocybin 10 mg, Day 84, MMRM): 0.2 | SSR fulfilling expectations change from baseline, LS mean (healthy subjects [1]; Psilocybin 25 mg, Day 7, MMRM): −0.0 | SSR fulfilling expectations change from baseline, LS mean (healthy subjects [1]; Psilocybin 25 mg, Day 84, MMRM): −0.0 | Overall body weight [2]: not affected | NEO agreeableness change from baseline, difference Psilocybin 10 mg - Placebo (healthy subjects [3]; Day 7): −0.4 | NEO agreeableness change from baseline, difference Psilocybin 25 mg - Placebo (healthy subjects [3]; Day 7): −0.1 | NEO agreeableness change from baseline, difference Psilocybin (25 mg-10 mg) (healthy subjects [3]; Day 7): 0.4 | NEO conscientiousness change from baseline, difference Psilocybin 10 mg - Placebo (healthy subjects [3]; Day 7): 0.4 | NEO conscientiousness change from baseline, difference Psilocybin 25 mg - Placebo (healthy subjects [3]; Day 7): 0.7 | NEO conscientiousness change from baseline, difference Psilocybin (25 mg-10 mg) (healthy subjects [3]; Day 7): 0.3 | NEO extraversion change from baseline, difference Psilocybin 10 mg - Placebo (healthy subjects [3]; Day 7): 0.4 | NEO extraversion change from baseline, difference Psilocybin 25 mg - Placebo (healthy subjects [3]; Day 7): 0.5 | NEO extraversion change from baseline, difference Psilocybin (25 mg-10 mg) (healthy subjects [3]; Day 7): 0.1 | NEO neuroticism change from baseline, difference Psilocybin 10 mg - Placebo (healthy subjects [3]; Day 7): −0.2 | NEO neuroticism change from baseline, difference Psilocybin 25 mg - Placebo (healthy subjects [3]; Day 7): 0.2 | NEO neuroticism change from baseline, difference Psilocybin (25 mg-10 mg) (healthy subjects [3]; Day 7): −0.0 | NEO openness change from baseline, difference Psilocybin 10 mg - Placebo (healthy subjects [3]; Day 7): 1.1 | NEO openness change from baseline, difference Psilocybin 25 mg - Placebo (healthy subjects [3]; Day 7): 1.2 | NEO openness change from baseline, difference Psilocybin (25 mg-10 mg) (healthy subjects [3]; Day 7): 0.1 | NEO agreeableness change from baseline, difference Psilocybin 10 mg - Placebo (healthy subjects [3]; Day 84): −0.8 | NEO agreeableness change from baseline, difference Psilocybin 25 mg - Placebo (healthy subjects [3]; Day 84): −0.7 | NEO agreeableness change from baseline, difference Psilocybin (25 mg-10 mg) (healthy subjects [3]; Day 84): 0.1 | NEO conscientiousness change from baseline, difference Psilocybin 10 mg - Placebo (healthy subjects [3]; Day 84): 0.2 | NEO conscientiousness change from baseline, difference Psilocybin 25 mg - Placebo (healthy subjects [3]; Day 84): 1.4 | NEO conscientiousness change from baseline, difference Psilocybin (25 mg-10 mg) (healthy subjects [3]; Day 84): 1.2 | NEO extraversion change from baseline, difference Psilocybin 10 mg - Placebo (healthy subjects [3]; Day 84): −0.7 | NEO extraversion change from baseline, difference Psilocybin 25 mg - Placebo (healthy subjects [3]; Day 84): −0.5 | NEO extraversion change from baseline, difference Psilocybin (25 mg-10 mg) (healthy subjects [3]; Day 84): 0.2 | NEO neuroticism change from baseline, difference Psilocybin 10 mg - Placebo (healthy subjects [3]; Day 84): 0.3 | NEO neuroticism change from baseline, difference Psilocybin 25 mg - Placebo (healthy subjects [3]; Day 84): −1.0 | NEO neuroticism change from baseline, difference Psilocybin (25 mg-10 mg) (healthy subjects [3]; Day 84): −1.3 | NEO openness change from baseline, difference Psilocybin 10 mg - Placebo (healthy subjects [3]; Day 84): 1.1 | NEO openness change from baseline, difference Psilocybin 25 mg - Placebo (healthy subjects [3]; Day 84): 0.4 | NEO openness change from baseline, difference Psilocybin (25 mg-10 mg) (healthy subjects [3]; Day 84): −0.7
